Counter-ions that a name gives are not always drawn.
| Compound | melting point |
| --- | --- |
| Cl.N#Cc1ccc(C2C(=O)N(Cc3ccc(C(F)(F)F)cc3)Cc3cncn32)cc1 (centres unmarked) | 234 to 236 °C |
| CN1Cc2cncn2C(c2ccccc2)C1=O.Cl (centres unmarked) | 252 to 254 °C |
| CN1Cc2cncn2C(c2ccc(C#N)cc2)C1=O.Cl (centres unmarked) | 222 to 224 °C |
| CN1Cc2cncn2C(c2cccc(Br)c2)C1=O.Cl (centres unmarked) | 265 °C (dec.) |
| O=C(O)C(=O)O.O=C1C(c2cccc(Br)c2)n2cncc2CN1C1CCCCC1 (centres unmarked) | 129 to 131 °C |
| COc1ccc(CCN2Cc3cncn3C(c3cccc(Br)c3)C2=O)cc1.Cl (centres unmarked) | 202 to 204 °C |
| Cl.O=C1C(c2cccc(Br)c2)n2cncc2CN1CCc1ccc(Cl)cc1 (centres unmarked) | 225 to 226 °C |
| Cc1ccc(CCN2Cc3cncn3C(c3cccc(Br)c3)C2=O)cc1.Cl (centres unmarked) | 197 to 199 °C |
| Cl.O=C1C(c2cccc(Br)c2)n2cncc2CN1CCc1ccc(F)cc1 (centres unmarked) | 179 to 180 °C |
| Cl.O=C1C(c2cccc(Br)c2)n2cncc2CN1Cc1cccs1 (centres unmarked) | 233 to 235 °C |
| Cl.O=C1C(c2cccc(Br)c2)n2cncc2CN1Cc1ccco1 (centres unmarked) | 215 to 218 °C |
| Cl.O=C1Cn2cncc2CN1Cc1ccccc1 | 201 to 204 °C |
| Cl.N#Cc1ccc(C2C(=O)N(CCc3ccc(F)cc3)Cc3cncn32)cc1 (centres unmarked) | 160 to 162 °C |
| COc1ccc(CN2Cc3cncn3C(c3cccc(C#N)c3)C2=O)cc1.Cl (centres unmarked) | 246 to 248 °C |
| Cl.N#Cc1cccc(C2C(=O)N(CCc3ccc(F)cc3)Cc3cncn32)c1 (centres unmarked) | 221 to 223 °C |
| Cl.N#Cc1cccc(C2C(=O)N(CC3CC3)Cc3cncn32)c1 (centres unmarked) | 225 to 227 °C |

| Compound | melting point |
| --- | --- |
| COc1ccc(CN2Cc3cncn3C(c3ccc(-c4ccc(Cl)cc4)cc3)C2=O)cc1.Cl (centres unmarked) | 270 to 273 °C |
| Cl.O=C1C(c2ccc(-c3ccsc3)cc2)n2cncc2CN1CC1CC1 (centres unmarked) | 217 to 219 °C |
| Cl.Cl.N#Cc1ccc(C2C(=O)N(CCCN3CCOCC3)Cc3cncn32)cc1 (centres unmarked) | 246 to 248 °C |
| CC1(c2ccc(C#N)cc2)C(=O)N(Cc2ccccc2)Cc2cncn21.Cl (centres unmarked) | 230 to 232 °C |
| CC1(c2ccc(Br)cc2)C(=O)N(CC2CC2)Cc2cncn21.Cl (centres unmarked) | 228 to 230 °C |
| CC1(c2cccc(Br)c2)C(=O)N(CC2CC2)Cc2cncn21.Cl (centres unmarked) | 234 to 236 °C |
| CC1(c2ccc(Br)cc2)C(=O)N(Cc2ccc(F)cc2)Cc2cncn21.Cl (centres unmarked) | 235 to 237 °C |
| C[C@H](c1ccccc1)N1Cc2cncn2C(c2cccc(Br)c2)C1=O (single isomer, unassigned; (+)) [Example 58] | 45 to 50 °C |
| C[C@@H](c1ccccc1)N1Cc2cncn2C(c2cccc(Br)c2)C1=O (single isomer, unassigned; (-)) [Example 59] | 55 to 70 °C |
| C[C@@H](c1ccccc1)N1Cc2cncn2C(c2ccc(C#N)cc2)C1=O (single isomer, unassigned; (-)) [Example 62] | 157 to 158 °C |
| C=CCN1Cc2cncn2C(c2ccc(C#N)cc2)C1=O (centres unmarked) [Example 4, 4-(7-Allyl-6-oxo-5,6,7,8-tetrahydro-imidazo[1,5-a]pyrazin-5-yl)-benzonitrile] | 107 to 109 °C |
| CCCN1Cc2cncn2C(c2ccc(C#N)cc2)C1=O (centres unmarked) [Example 5, 4-(6-Oxo-7-propyl-5,6,7,8-tetrahydro-imidazo[1,5-a]pyrazin-5-yl)-benzonitrile] | 97 to 98 °C |
| CC(C)N1Cc2cncn2C(c2ccc(C#N)cc2)C1=O (centres unmarked) [Example 6, 4-(7-Isopropyl-6-oxo-5,6,7,8-tetrahydro-imidazo[1,5-a]pyrazin-5-yl)-benzonitrile] | 122 to 124 °C |
| N#Cc1ccc(C2C(=O)N(Cc3ccc(Cl)c(Cl)c3)Cc3cncn32)cc1 (centres unmarked) [Example 16] | 175 to 176 °C |
| Cc1ccc(CN2Cc3cncn3CC2=O)cc1 [Example 64, 7-(4-Methyl-benzyl)-7,8-dihydro-imidazo[1,5-a]pyrazin-6-one] | 105 to 108 °C |
| O=C1Cn2cncc2CN1Cc1ccc(F)cc1 [Example 65, 7-(4-Fluoro-benzyl)-7,8-dihydro-imidazo[1,5-a]pyrazin-6-one] | 112 to 114 °C |

More lines, now with the values ahead:

| melting point | Compound |
| --- | --- |
| 245 to 246 °C | Cl.N#Cc1ccc(C2C(=O)N(Cc3ccc(Cl)cc3)Cc3cncn32)cc1 (centres unmarked) |
| 275 to 277 °C | Cc1cccc(CN2Cc3cncn3C(c3ccc(C#N)cc3)C2=O)c1.Cl (centres unmarked) |
| 250 to 252 °C | Cl.N#Cc1ccc(C2C(=O)N(Cc3cccc(C(F)(F)F)c3)Cc3cncn32)cc1 (centres unmarked) |
| 249 to 251 °C | Cl.O=C1C(c2ccccc2)n2cncc2CN1Cc1ccccc1 (centres unmarked) |
| 223 to 225 °C | Cl.O=C1C(c2ccc(Br)cc2)n2cncc2CN1CC1CC1 (centres unmarked) |
| 250 °C (dec.) | Cl.O=C1C(c2ccc(Br)cc2)n2cncc2CN1Cc1ccccc1 (centres unmarked) |
| 158 to 159 °C | Cl.O=C1C(c2ccc(Br)cc2)n2cncc2CN1Cc1ccc(Cl)cc1 (centres unmarked) |
| 113 to 114 °C | Cl.O=C1C(c2ccc(Br)cc2)n2cncc2CN1Cc1ccc(C(F)(F)F)cc1 (centres unmarked) |
| 149 to 150 °C | COc1ccc(N2Cc3cncn3C(c3ccc(Br)cc3)C2=O)cc1.Cl (centres unmarked) |
| 136 to 138 °C | Cl.O=C1C(c2ccc(Br)cc2)n2cncc2CN1CCc1ccc(F)cc1 (centres unmarked) |
| 205 to 207 °C | Cl.O=C1C(c2ccc(Br)cc2)n2cncc2CN1Cc1ccc(F)cc1 (centres unmarked) |
| 249 to 251 °C | Cl.O=C1C(c2cccc(Br)c2)n2cncc2CN1Cc1ccccc1 (centres unmarked) |
| 246 to 248 °C | COc1ccc(CN2Cc3cncn3C(c3cccc(Br)c3)C2=O)cc1.Cl (centres unmarked) |
| 246 to 248 °C | Cl.O=C1C(c2cccc(Br)c2)n2cncc2CN1Cc1ccc(F)cc1 (centres unmarked) |
| 268 to 270 °C | Cl.O=C1C(c2cccc(Br)c2)n2cncc2CN1Cc1ccc(Cl)cc1 (centres unmarked) |
| 265 to 267 °C | Cc1ccc(CN2Cc3cncn3C(c3cccc(Br)c3)C2=O)cc1.Cl (centres unmarked) |
| 269 to 271 °C | Cl.O=C1C(c2cccc(Br)c2)n2cncc2CN1Cc1ccc(C(F)(F)F)cc1 (centres unmarked) |
| 246 to 248 °C | Cl.O=C1C(c2cccc(Br)c2)n2cncc2CN1Cc1cccc(C(F)(F)F)c1 (centres unmarked) |
| 240 to 243 °C | Cl.O=C1C(c2cccc(Br)c2)n2cncc2CN1Cc1cccc(F)c1 (centres unmarked) |
| 248 to 249 °C | Cc1cccc(CN2Cc3cncn3C(c3cccc(Br)c3)C2=O)c1.Cl (centres unmarked) |
| 205 to 207 °C | Cl.O=C1C(c2cccc(Br)c2)n2cncc2CN1CCc1ccccc1 (centres unmarked) |

| melting point | Compound |
| --- | --- |
| 184 to 186 °C | Cl.O=C1C(c2cccc(Br)c2)n2cncc2CN1CCc1cccc(Cl)c1 (centres unmarked) |
| 260 to 263 °C | Cc1ccc(CN2Cc3cncn3C(c3cccc(C#N)c3)C2=O)cc1.Cl (centres unmarked) |
| 260 to 263 °C | Cl.N#Cc1cccc(C2C(=O)N(Cc3ccc(F)cc3)Cc3cncn32)c1 (centres unmarked) |
| 236 to 238 °C | Cl.N#Cc1cccc(C2C(=O)N(Cc3ccc(Cl)cc3)Cc3cncn32)c1 (centres unmarked) |
| 203 to 205 °C | Cl.N#Cc1cccc(C2C(=O)N(CCc3ccccc3)Cc3cncn32)c1 (centres unmarked) |
| 235 to 237 °C | Cl.O=C1C(c2cccc(-c3ccc(F)cc3)c2)n2cncc2CN1Cc1ccccc1 (centres unmarked) |
| 232 to 234 °C | Cl.O=C1C(c2cccc(-c3ccccc3)c2)n2cncc2CN1Cc1ccccc1 (centres unmarked) |
| 236 to 238 °C | COC(=O)c1ccc(C2C(=O)N(Cc3ccccc3)Cc3cncn32)cc1.Cl (centres unmarked) |
| 223 to 225 °C | Brc1ccc(C2CN(Cc3ccccc3)Cc3cncn32)cc1 (centres unmarked) (as salt: toluene sulfonate) [Example 91, 5-(4-Bromophenyl)-7-benzyl-5,6,7,8-tetrahydro-imidazo[1,5-a]pyrazine p-toluene sulfonate] |
| 147 to 148 °C | C[C@H](c1ccccc1)N1Cc2cncn2C(c2ccc(Br)cc2)C1=O (single isomer, unassigned; (+)) [Example 60] |
| 167 to 168 °C | C[C@@H](c1ccccc1)N1Cc2cncn2C(c2ccc(Br)cc2)C1=O (single isomer, unassigned; (-)) [Example 61] |
| 155 to 157 °C | COc1ccc(CN2Cc3cncn3C(c3ccc(C#N)cc3)C2=O)cc1 (centres unmarked) [Example 9, 4-[7-(4-Methoxy-benzyl)-6-oxo-5,6,7,8-tetrahydro-imidazo[1,5-a]pyrazin-5-yl)-benzonitrile] |
| 168 to 170 °C | Cc1ccc(CN2Cc3cncn3C(c3ccc(C#N)cc3)C2=O)cc1 (centres unmarked) [Example 10, 4-[7-(4-Methyl-benzyl)-6-oxo-5,6,7,8-tetrahydro-imidazo[1,5-a]pyrazin-5-yl)-benzonitrile] |
| 132 to 135 °C | N#Cc1ccc(C2C(=O)N(Cc3ccc(F)cc3)Cc3cncn32)cc1 (centres unmarked) [Example 14, 4-[6-Oxo-7-(4-fluoro-benzyl)-5,6,7,8-tetrahydro-imidazo[1,5-a]pyrazin-5-yl]-benzonitrile] |
| 143 to 144 °C | CN1Cc2cncn2C(c2ccc(Br)cc2)C1=O (centres unmarked) [Example 20, 5-(4-Bromo-phenyl)-7-methyl-7,8-dihydro-imidazo[1,5-a]pyrazin-6-one] |
| 123 to 124 °C | COc1ccc(CN2Cc3cncn3C(c3ccc(Br)cc3)C2=O)cc1 (centres unmarked) [Example 21, 5-(4-Bromo-phenyl)-7-(4-methoxy-benzyl)-7,8-dihydro-imidazo[1,5-a]pyrazin-6-one] |
| 43 to 45 °C | O=C1C(c2cccc(Br)c2)n2cncc2CN1Cc1ccsc1 (centres unmarked) [Example 50, 5-(3-Bromo-phenyl)-7-thiophen-3-ylmethyl-7,8-dihydro-imidazo[1,5-a]pyrazin-6-one] |
| 50 to 54 °C | O=C1C(c2cccc(Br)c2)n2cncc2CN1Cc1cccnc1 (centres unmarked) [Example 52, 5-(3-Bromo-phenyl)-7-pyridin-3-ylmethyl-7,8-dihydro-imidazo[1,5-a]pyrazin-6-one] |
| 52 to 56 °C | O=C1C(c2cccc(Br)c2)n2cncc2CN1Cc1ccccn1 (centres unmarked) [Example 53, 5-(3-Bromo-phenyl)-7-pyridin-2-ylmethyl-7,8-dihydro-imidazo[1,5-a]pyrazin-6-one] |
| 50 to 54 °C | O=C1C(c2cccc(Br)c2)n2cncc2CN1Cc1ccncc1 (centres unmarked) [Example 54, 5-(3-Bromo-phenyl)-7-pyridin-4-ylmethyl-7,8-dihydro-imidazo[1,5-a]pyrazin-6-one] |
| 163 to 165 °C | N#Cc1cccc(C2C(=O)N(Cc3ccccc3)Cc3cncn32)c1 (centres unmarked) [Example 66] |
